Measurements from patent US20030130298A1, “Cd45 inhibitors” (priority 1999, published 2003).

Tests used:
[1] = molecular target: T1, CD45 (Homo sapiens, UniProt P08575); assay: Phosphatase assay using pNPP as substrate; assay type: biochemical; conditions: pH 7.0
T1 construct: purchased BIOMOL (Plymouth Meeting, P.A.)
T1 sequence (P08575 599-1306 limits assumed): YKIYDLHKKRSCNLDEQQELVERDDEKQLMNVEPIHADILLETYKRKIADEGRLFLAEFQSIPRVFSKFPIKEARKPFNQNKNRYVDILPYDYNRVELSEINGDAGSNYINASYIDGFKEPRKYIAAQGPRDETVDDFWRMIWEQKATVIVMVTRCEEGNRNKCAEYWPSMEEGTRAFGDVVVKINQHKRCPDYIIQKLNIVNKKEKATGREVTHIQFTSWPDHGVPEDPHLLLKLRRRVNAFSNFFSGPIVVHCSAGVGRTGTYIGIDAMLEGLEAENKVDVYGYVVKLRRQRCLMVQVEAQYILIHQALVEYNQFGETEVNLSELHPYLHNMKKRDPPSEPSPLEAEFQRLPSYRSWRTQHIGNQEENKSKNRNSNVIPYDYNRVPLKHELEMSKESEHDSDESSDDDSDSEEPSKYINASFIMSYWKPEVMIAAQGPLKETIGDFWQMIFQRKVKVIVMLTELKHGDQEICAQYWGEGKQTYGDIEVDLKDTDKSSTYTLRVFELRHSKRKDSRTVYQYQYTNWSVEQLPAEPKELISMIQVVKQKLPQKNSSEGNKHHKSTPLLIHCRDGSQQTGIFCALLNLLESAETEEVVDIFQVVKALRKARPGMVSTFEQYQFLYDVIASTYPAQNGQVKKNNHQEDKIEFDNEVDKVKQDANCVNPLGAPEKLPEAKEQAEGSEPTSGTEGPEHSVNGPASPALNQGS
Description: (§1) Potent inhibitors of CD45 have been discovered. Such inhibitors are useful for the treatment of various autoimmune disorders as well as for treatment of OGR. Inhibition of the phosphatase activity of CD45 by compounds of the present invention has been shown by incubating the cytosolic portion of CD45 with the compounds and p-nitrophenyl phosphate (pNPP), a phosphatase substrate. Spectrophotometric monitoring has shown that the liberation of p-nitrophenol from the substrate by CD45 is inhibited in the presence of the compounds disclosed herein. Inhibition of the phosphatase activity of CD45 by compounds of the present invention has also been shown using a p56^lckcarboxy-terminal phosphorylated peptide as a substrate.
CD45 enzyme was obtained from BIOMOL (Plymouth Meeting, P.A.). Phosphatase activity was assayed in a buffer containing final concentrations of 25 mM imidazole at pH 7.0, 50 mM NaCl, 2.5 mM ethylenediaminetetraacetic acid (“EDTA”), 5 mM dithiothreitol (“DTT”) and 10 μg/mL bovine serum albumin (“BSA”) using pNPP as a substrate. […] Activity was measured by following the increase in absorbance at 405 nm using a SpectraMax Plus spectrophotometric plate reader (Molecular Devices, Sunnyvale, Calif.).

[2] = molecular target: T1, CD45; assay: Phosphatase assay using lck 10-mer as substrate; assay type: biochemical; conditions: lck carboxy-terminal peptide TEGQpYQPQP substrate, read-out: Ick IC50
Description: as §1
Phosphatase activity was assayed in 96 well plates in a buffer containing final concentrations of 25 mM HEPES at pH 7.2, 5 mM DTT and 10 μg/mL BSA, using the lck carboxy-terminal peptide TEGQpYQPQP as the substrate (Cho, H., Krishnaraj, R., Itoh, M., Kitas, E., Bannwarth, W., Saito, H., Walsh, C. T. 1993. Substrate specificities of catalytic fragments of protein tyrosine phosphatases (HPTPb, LAR, and CD45) toward the phosphotyrosylpeptide substrates and thiophosphotyrosylated peptides as inhibitors. Protein Science 2:977-984). Compounds were tested in a range from 30 to 0.01 μM in a final concentration of 5% DMSO. Enzyme was incubated with substrate, with or without compound, at room temperature for 1.5 h. At the end of the incubation period, BIOMOL “Green Reagent” (BIOMOL, Plymouth Meeting, Pa.) was added to each well, the plates incubated at room temperature for 30 min and absorbance read at 620 nm.

[3] = test system: Peripheral blood mononuclear cells (T cells); assay: T cell proliferation assay (anti-CD3 OKT3 activated PBMC, [3H]thymidine); assay type: cell-based; conditions: Homo sapiens; PBMC activated with OKT3 30 ng/mL; read-out: T cell prolif. IC50
Description: Whole blood was obtained from healthy human blood donors. Peripheral blood mononuclear cells (“PBMC”) were isolated using Lymphoprep density-gradient centrifugation (Nycomed Amersham, Oslo, Norway), washed, counted and resuspended at 2×10^6 cells/mL in RPMI 1640 medium containing glutamine, 0.1 mg/mL gentamycin and 10% heat inactivated human serum. PBMC were transferred to 96-well plates (2×10^5 cells/well) containing compound or vehicle control, with the final concentration of DMSO not to exceed 0.3%, and incubated for 1 hour before addition of the activating anti-CD3 antibody, OKT3 (30 ng/mL). After 24 hours in culture, the cells were pulsed with [^3H]thymidine (1 μCi/well) overnight and harvested the next day onto 96-well Packard GF/C filter plates using a Packard Cell Harvester (Packard Instruments, Meriden, Conn.). The filter plate was dried, the bottom of the plate sealed, 25 μL of Microscint 20 scintillation fluid added to each well, the top of the plate sealed with TopSeal-A, and the plate counted on a Packard TopCount. The data from the TopCount is transferred into Excel 5 (Microsoft, Redmond, Wash.) and formatted for EC50 determination using Prism software (GraphPad Software, San Diego, Calif.).

[4] = Cytotoxicity assay (Calcein-AM uptake); assay type: cell-based; conditions: human, PHA-expanded T-cell lymphoblasts derived from PBMC, overnight incubation, Calcein-AM viability
Description: Calcein-AM (Molecular Probes, Eugene, Oreg.) uptake, as a quantitative measure of cell viability, was used to evaluate the toxic effect of compounds on T cells.
The T-cell lymphoblasts were purified by separation over Lymphoprep, plated at 2×10 ^5/well in a round bottom 96-well plate containing RPMI with compound and incubated overnight at 37° C. in an incubator containing 5% CO2. The dilution scheme and culture media were the same as those used in the T-cell proliferation assay. After the incubation period, cells were washed with Dulbecco's phosphate- buffered saline (D-PBS) and incubated with 1 μM Calcein-AM for 30-45 min in D-PBS as described in the technical sheet provided with The LIVE/DEAD Viability/Cytotoxicity Kit from Molecular Probes.

IC50 [1] [nM] | IC50 ([2]; pH 7.2, 1.5 h) [nM] | IC50 ([2]; pH 7.2, […]) [nM] | SMILES | IC50 [3] [nM] | CC50 [4] [nM]
2300 | > 30000 |  | O=C1C(=O)c2ncccc2-c2ccccc21 [Example 1, benzo[f]quinoline-5,6-dione] | 400 | 7000
1000 |  | 3100 | O=C1C(=O)c2cccnc2-c2ccccc21 [Example 2, benzo[h]quinoline-5,6-dione] | 240 | 2400
1100 |  | 4500 | O=C1C(=O)c2ccoc2-c2ccccc21 [Example 3, naphtho[,1,2b]furan-4,5-dione] |  | 3500
1500 | > 30000 |  | O=C1C(=O)c2ccsc2-c2ccccc21 [Example 4, naphtho[1,2-b]thiophene-4,5-dione] |  | 3500
